≈ marks a conversion by molar mass, not a printed value. Calls of active or inactive are those of the source. The calls are words filed in the database; no cut-off is given here.
How the values were obtained:
Cytochrome P450 1A2 [1] = molecular target: T1, Cytochrome P450 1A2 (Homo sapiens, UniProt P05177); assay: Time dependent inhibition of CYP1A2 in human liver microsomes; assay type: ADME
Cytochrome P450 3A4 [2] = molecular target: T2, Cytochrome P450 3A4 (Homo sapiens, UniProt P08684); assay: Time dependent inhibition of CYP3A4 in human liver microsomes using BFC/BZR as substrate; assay type: ADME
[3] = molecular target: Glutamate receptor ionotropic, NMDA 2B (Homo sapiens, UniProt Q05586+Q13224); assay: Negative allosteric modulation of human GluN2B receptor expressed in Xenopus laevis oocytes assessed as inhibition of glutamate/glycine-induced channel current after 15 to 20 mins by two electrode voltage clamp based electrophysiology assay; assay type: cell-based
Mus musculus [4] = assay: Ex vivo receptor occupancy at GluN2B receptor in CD-1 mouse forebrain membranes assessed as reduction in [3H]Ro 25-6981 receptor labeling at 1 mg/kg, iv incubated for 5 mins by topcount micro scintillation counting method; assay type: functional
[5] = Plasma concentration in CD-1 mouse at 0.1 to 1 mg/kg, iv; assay type: ADME, organism-based; settings: in vivo
[6] = Fraction unbound in human plasma; assay type: ADME, cell-free
[7] = Fraction unbound in rat plasma; assay type: ADME, cell-free
[8] = Fraction unbound in mouse plasma; assay type: ADME, cell-free
[9] = Dissociation constant, pKa of the compound by spectrophotometric method; assay type: physicochemical
Mus musculus [10] = assay: Ex vivo receptor occupancy at GluN2B receptor in CD-1 mouse forebrain membranes assessed as reduction in [3H]Ro 25-6981 receptor labeling at 3 mg/kg, iv incubated for 5 mins by topcount micro scintillation counting method; assay type: functional
[11] = molecular target: Glutamate receptor ionotropic, NMDA 2A (Homo sapiens) (UniProt Q12879); assay: Negative allosteric modulation of human GluN2A receptor expressed in Xenopus laevis oocytes assessed as inhibition of glutamate/glycine-induced channel current at 3 uM after 10 to 15 mins by two electrode voltage clamp based electrophysiology assay; assay type: cell-based
[12] = molecular target: Glutamate receptor ionotropic, NMDA 2C (Homo sapiens) (UniProt Q14957); assay: Negative allosteric modulation of human GluN2C receptor expressed in Xenopus laevis oocytes assessed as inhibition of glutamate/glycine-induced channel current at 3 uM after 10 to 15 mins by two electrode voltage clamp based electrophysiology assay; assay type: cell-based
[13] = molecular target: Glutamate receptor ionotropic, NMDA 2D (Homo sapiens) (UniProt O15399); assay: Negative allosteric modulation of human GluN2D receptor expressed in Xenopus laevis oocytes assessed as inhibition of glutamate/glycine-induced channel current at 3 uM after 10 to 15 mins by two electrode voltage clamp based electrophysiology assay; assay type: cell-based
Salmonella typhimurium = assay: Mutagenicity in Salmonella typhimurium by Ames test; assay type: toxicity, organism-based; settings: salmonella enterica subsp. enterica serovar typhimurium
[14] = Fraction unbound in cynomolgus monkey plasma; assay type: ADME, cell-free, Macaca fascicularis
[15] = Half life in human liver microsomes; assay type: ADME, microsome
[16] = Half life in rat liver microsomes; assay type: ADME, microsome
[17] = Half life in mouse liver microsomes; assay type: ADME, microsome
[18] = Half life in cynomolgus monkey liver microsomes; assay type: ADME, Macaca fascicularis, microsome
[19] = Half life in dog liver microsomes; assay type: ADME, Canis lupus familiaris, microsome
[20] = Fraction unbound in dog plasma; assay type: ADME, cell-free, Canis lupus familiaris
Cytochrome P450 3A4 [21] = molecular target: T2, Cytochrome P450 3A4; assay: Inhibition of CYP3A4 in human liver microsomes using BFC/BZR as substrate; assay type: ADME
Cytochrome P450 1A2 [22] = molecular target: T1, Cytochrome P450 1A2; assay: Inhibition of CYP1A2 in human liver microsomes; assay type: ADME
Cytochrome P450 2B6 [23] = molecular target: T3, Cytochrome P450 2B6 (Homo sapiens, UniProt P20813); assay: Inhibition of CYP2B6 in human liver microsomes; assay type: ADME
Cytochrome P450 2C8 [24] = molecular target: T4, Cytochrome P450 2C8 (Homo sapiens, UniProt P10632); assay: Inhibition of CYP2C8 in human liver microsomes; assay type: ADME
Cytochrome P450 2C9 [25] = molecular target: T5, Cytochrome P450 2C9 (Homo sapiens, UniProt P11712); assay: Inhibition of CYP2C9 in human liver microsomes; assay type: ADME
Cytochrome P450 2C19 [26] = molecular target: T6, Cytochrome P450 2C19 (Homo sapiens, UniProt P33261); assay: Inhibition of CYP2C19 in human liver microsomes; assay type: ADME
Cytochrome P450 2D6 [27] = molecular target: T7, Cytochrome P450 2D6 (Homo sapiens, UniProt P10635); assay: Inhibition of CYP2D6 in human liver microsomes; assay type: ADME
[28] = Octanol/water buffer partition co-efficient, log D of the compound at pH 7.4 by shake-flask method; assay type: physicochemical
[29] = Aqueous solubility of the compound at pH 7.4; assay type: physicochemical; settings: aqueous medium
[30] = Ratio of drug uptake in CD-1 mouse brain to plasma at 0.1 to 1 mg/kg, iv; assay type: ADME, organism-based; settings: read-out: BPR
[31] = Binding affinity to GluN2B receptor in cynomolgus monkey cortex; set-up: species or system Macaca fascicularis
[32] = molecular target: Glutamate receptor ionotropic, NMDA 2B (Homo sapiens, UniProt Q13224); assay: Binding affinity to GluN2B receptor in human cortex
[33] = Half life in CD-1 mouse at 1 mg/kg, iv administered as 5 mins infusion; assay type: ADME, organism-based; settings: in vivo
[34] = Clearance in CD-1 mouse at 1 mg/kg, iv administered as 5 mins infusion; assay type: ADME, organism-based; settings: in vivo
[35] = Volume of distribution at steady state in CD-1 mouse at 1 mg/kg, iv administered as 5 mins infusion; assay type: ADME, organism-based; settings: in vivo, read-out: Vdss
[36] = AUClast in CD-1 mouse at 1 mg/kg, iv administered as 5 mins infusion; assay type: ADME, organism-based; set-up: dose 1 mg/kg, time 0 - last, route intravenous; settings: in vivo
[37] = Half life in Sprague-Dawley rat at 1 mg/kg, iv administered as 5 mins infusion; assay type: ADME, organism-based; settings: in vivo
[38] = Clearance in Sprague-Dawley rat at 1 mg/kg, iv administered as 5 mins infusion; assay type: ADME, organism-based; settings: in vivo
[39] = Volume of distribution at steady state in Sprague-Dawley rat at 1 mg/kg, iv administered as 5 mins infusion; assay type: ADME, organism-based; settings: in vivo, read-out: Vdss
[40] = AUClast in Sprague-Dawley rat at 1 mg/kg, iv administered as 5 mins infusion; assay type: ADME, organism-based; set-up: dose 1 mg/kg, route intravenous, time 0 - last; settings: in vivo
[41] = Half life in cynomolgus monkey at 1 mg/kg, iv administered as 5 mins infusion; assay type: ADME, organism-based, Macaca fascicularis; settings: in vivo
[42] = Clearance in cynomolgus monkey at 1 mg/kg, iv administered as 5 mins infusion; assay type: ADME, organism-based, Macaca fascicularis; settings: in vivo
[43] = Volume of distribution at steady state in cynomolgus monkey at 1 mg/kg, iv administered as 5 mins infusion; assay type: ADME, organism-based, Macaca fascicularis; settings: in vivo, read-out: Vdss
[44] = AUClast in cynomolgus monkey at 1 mg/kg, iv administered as 5 mins infusion; assay type: ADME, organism-based, Macaca fascicularis; set-up: dose 1 mg/kg, route intravenous, time 0 - last; settings: in vivo
[45] = Half life in Beagle dog at 1 mg/kg, iv administered as 5 mins infusion; assay type: ADME, organism-based, Canis lupus familiaris; settings: in vivo
[46] = Clearance in Beagle dog at 1 mg/kg, iv administered as 5 mins infusion; assay type: ADME, organism-based, Canis lupus familiaris; settings: in vivo
[47] = Volume of distribution at steady state in Beagle dog at 1 mg/kg, iv administered as 5 mins infusion; assay type: ADME, organism-based, Canis lupus familiaris; settings: in vivo, read-out: Vdss
[48] = AUClast in Beagle dog at 1 mg/kg, iv administered as 5 mins infusion; assay type: ADME, organism-based, Canis lupus familiaris; set-up: dose 1 mg/kg, time 0 - last, route intravenous; settings: in vivo
[49] = Oral bioavailability in rat at 5 mg/kg; assay type: ADME, organism-based; settings: in vivo
Cavia porcellus = assay: Cardiotoxicity in guinea pig assessed as increase in QTcB at 2 to 10 mg/kg, iv; assay type: toxicity, organism-based; settings: in vivo
[50] = Unbound plasma concentration in guinea pig at 2 to 10 mg/kg, iv; assay type: ADME, organism-based, Cavia porcellus; settings: in vivo
Cytochrome P450 2B6 [51] = molecular target: T3, Cytochrome P450 2B6; assay: Time dependent inhibition of CYP2B6 in human liver microsomes; assay type: ADME
Cytochrome P450 2C8 [52] = molecular target: T4, Cytochrome P450 2C8; assay: Time dependent inhibition of CYP2C8 in human liver microsomes; assay type: ADME
Cytochrome P450 2C9 [53] = molecular target: T5, Cytochrome P450 2C9; assay: Time dependent inhibition of CYP2C9 in human liver microsomes; assay type: ADME
Cytochrome P450 2C19 [54] = molecular target: T6, Cytochrome P450 2C19; assay: Time dependent inhibition of CYP2C19 in human liver microsomes; assay type: ADME
Cytochrome P450 2D6 [55] = molecular target: T7, Cytochrome P450 2D6; assay: Time dependent inhibition of CYP2D6 in human liver microsomes; assay type: ADME
[56] = molecular target: Adrenergic receptor alpha-1 (Homo sapiens) (UniProt P35348+P25100+P35368); assay: Inhibition of human adrenergic alpha 1 receptor; assay type: protein assay
[57] = Prodrug activation in rat assessed as BMS-986169 level in blood at 37 degC; assay type: tissue-based
[58] = Prodrug activation in monkey assessed as BMS-986169 level in blood at 37 degC; assay type: tissue-based, Macaca mulatta; settings: rhesus monkey
[59] = Prodrug activation in dog assessed as BMS-986169 level in blood at 37 degC; assay type: tissue-based, Canis lupus familiaris
[60] = Prodrug activation in human assessed as BMS-986169 level in blood at 37 degC; assay type: tissue-based
[61] = Prodrug activation in cynomolgus monkey assessed as BMS-986169 level in plasma at 1.2 mg/kg, iv measured 10 mins post dose; assay type: organism-based, Macaca fascicularis; settings: in vivo
Rhesus monkey = assay: AUC (0 to 24 hrs) in monkey at 36 mg/kg, iv assessed as BMS-986169 level in plasma; assay type: ADME, organism-based, Macaca mulatta; set-up: dose 36 mg/kg, time < 24 hr, route intravenous; settings: in vivo

T6 sequence (P33261 whole entry): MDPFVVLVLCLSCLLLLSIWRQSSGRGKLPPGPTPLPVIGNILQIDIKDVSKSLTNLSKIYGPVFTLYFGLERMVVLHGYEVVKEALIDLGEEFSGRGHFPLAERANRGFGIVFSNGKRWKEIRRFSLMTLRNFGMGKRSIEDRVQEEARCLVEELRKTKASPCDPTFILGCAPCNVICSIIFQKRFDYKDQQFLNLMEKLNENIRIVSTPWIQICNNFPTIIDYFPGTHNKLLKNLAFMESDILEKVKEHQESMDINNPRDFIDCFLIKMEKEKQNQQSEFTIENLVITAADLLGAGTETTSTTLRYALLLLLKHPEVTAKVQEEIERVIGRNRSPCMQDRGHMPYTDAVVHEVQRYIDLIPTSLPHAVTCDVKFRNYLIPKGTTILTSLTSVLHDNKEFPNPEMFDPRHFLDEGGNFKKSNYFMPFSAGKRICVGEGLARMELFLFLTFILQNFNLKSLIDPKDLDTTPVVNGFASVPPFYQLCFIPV
T1 sequence (P05177 whole entry): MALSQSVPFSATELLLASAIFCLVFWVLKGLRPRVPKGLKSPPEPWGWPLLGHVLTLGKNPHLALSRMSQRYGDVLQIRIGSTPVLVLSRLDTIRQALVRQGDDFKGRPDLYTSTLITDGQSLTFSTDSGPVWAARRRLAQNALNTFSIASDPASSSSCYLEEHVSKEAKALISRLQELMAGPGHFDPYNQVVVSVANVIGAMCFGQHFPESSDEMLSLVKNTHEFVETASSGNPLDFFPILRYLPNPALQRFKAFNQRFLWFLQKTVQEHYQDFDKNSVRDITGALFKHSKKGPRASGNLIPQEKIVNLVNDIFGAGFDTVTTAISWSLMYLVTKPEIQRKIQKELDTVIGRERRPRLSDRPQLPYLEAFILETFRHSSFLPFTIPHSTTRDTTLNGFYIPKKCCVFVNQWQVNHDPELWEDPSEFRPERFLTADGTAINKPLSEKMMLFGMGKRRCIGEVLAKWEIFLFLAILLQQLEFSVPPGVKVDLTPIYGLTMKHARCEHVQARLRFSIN
T3 sequence (P20813 whole entry): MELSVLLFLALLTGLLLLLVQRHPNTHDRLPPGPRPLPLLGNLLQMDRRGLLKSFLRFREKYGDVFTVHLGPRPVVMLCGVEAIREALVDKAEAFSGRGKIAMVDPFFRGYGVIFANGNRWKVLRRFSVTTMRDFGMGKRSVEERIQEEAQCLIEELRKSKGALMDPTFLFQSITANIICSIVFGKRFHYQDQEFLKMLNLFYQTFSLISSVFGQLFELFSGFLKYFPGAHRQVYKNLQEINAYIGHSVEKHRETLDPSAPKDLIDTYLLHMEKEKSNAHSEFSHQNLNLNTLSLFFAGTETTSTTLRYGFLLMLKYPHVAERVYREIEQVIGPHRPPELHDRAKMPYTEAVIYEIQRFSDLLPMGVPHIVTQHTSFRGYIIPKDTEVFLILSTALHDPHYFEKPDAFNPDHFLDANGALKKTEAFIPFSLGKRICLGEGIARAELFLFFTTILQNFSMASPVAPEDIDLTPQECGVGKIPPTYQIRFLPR
T2 sequence (P08684 whole entry): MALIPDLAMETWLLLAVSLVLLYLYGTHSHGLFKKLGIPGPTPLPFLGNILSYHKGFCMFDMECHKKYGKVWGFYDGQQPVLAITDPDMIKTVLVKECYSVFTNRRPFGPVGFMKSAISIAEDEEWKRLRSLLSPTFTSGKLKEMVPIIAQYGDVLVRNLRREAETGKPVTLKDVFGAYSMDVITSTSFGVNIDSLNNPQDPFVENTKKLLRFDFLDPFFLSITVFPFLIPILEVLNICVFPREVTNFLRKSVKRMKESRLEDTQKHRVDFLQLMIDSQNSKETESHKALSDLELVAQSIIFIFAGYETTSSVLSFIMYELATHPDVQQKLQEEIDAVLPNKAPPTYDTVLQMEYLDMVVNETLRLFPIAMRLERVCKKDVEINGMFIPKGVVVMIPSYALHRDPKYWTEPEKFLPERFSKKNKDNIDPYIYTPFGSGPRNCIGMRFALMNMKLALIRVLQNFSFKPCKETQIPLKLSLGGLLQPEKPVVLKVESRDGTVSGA
T4 sequence (P10632 whole entry): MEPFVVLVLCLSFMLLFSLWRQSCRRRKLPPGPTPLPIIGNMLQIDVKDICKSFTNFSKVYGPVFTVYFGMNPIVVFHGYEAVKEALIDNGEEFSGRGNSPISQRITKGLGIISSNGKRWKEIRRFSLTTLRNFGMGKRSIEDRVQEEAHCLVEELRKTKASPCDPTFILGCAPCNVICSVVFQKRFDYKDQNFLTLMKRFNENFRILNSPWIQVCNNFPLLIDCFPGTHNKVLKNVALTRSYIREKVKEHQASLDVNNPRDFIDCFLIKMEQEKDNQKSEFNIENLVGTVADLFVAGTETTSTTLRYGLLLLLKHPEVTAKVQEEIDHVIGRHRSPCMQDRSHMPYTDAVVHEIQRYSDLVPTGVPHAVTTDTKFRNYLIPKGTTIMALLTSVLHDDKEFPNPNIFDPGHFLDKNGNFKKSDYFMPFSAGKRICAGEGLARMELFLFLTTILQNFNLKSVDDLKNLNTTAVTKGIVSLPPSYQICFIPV
T7 sequence (P10635 whole entry): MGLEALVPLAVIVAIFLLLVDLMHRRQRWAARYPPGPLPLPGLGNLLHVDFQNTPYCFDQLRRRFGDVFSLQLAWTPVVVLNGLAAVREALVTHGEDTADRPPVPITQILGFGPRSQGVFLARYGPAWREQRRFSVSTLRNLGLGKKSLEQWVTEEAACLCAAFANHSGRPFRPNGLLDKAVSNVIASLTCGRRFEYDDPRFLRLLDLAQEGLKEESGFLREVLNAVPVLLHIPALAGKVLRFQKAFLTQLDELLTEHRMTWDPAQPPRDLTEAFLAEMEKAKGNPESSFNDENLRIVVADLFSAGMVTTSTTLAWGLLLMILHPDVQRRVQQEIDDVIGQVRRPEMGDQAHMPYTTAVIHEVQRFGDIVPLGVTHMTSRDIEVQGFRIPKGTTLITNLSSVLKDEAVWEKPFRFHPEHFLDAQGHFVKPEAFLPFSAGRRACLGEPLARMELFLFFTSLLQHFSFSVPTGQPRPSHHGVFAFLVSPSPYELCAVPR
T5 sequence (P11712 whole entry): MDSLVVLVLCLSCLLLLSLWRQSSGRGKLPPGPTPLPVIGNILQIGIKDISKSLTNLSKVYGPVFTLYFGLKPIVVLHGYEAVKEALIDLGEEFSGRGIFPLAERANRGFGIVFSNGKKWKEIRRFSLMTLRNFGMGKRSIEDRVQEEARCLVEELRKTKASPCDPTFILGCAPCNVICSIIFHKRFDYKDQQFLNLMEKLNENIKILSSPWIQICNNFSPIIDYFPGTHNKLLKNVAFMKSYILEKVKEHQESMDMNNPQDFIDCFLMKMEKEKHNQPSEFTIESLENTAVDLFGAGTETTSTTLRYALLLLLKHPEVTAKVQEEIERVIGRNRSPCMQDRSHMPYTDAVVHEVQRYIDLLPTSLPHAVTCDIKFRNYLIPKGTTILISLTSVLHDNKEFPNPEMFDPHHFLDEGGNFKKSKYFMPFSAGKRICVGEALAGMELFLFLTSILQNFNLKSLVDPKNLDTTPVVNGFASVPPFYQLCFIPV
Sequence of Glutamate receptor ionotropic, NMDA 2B (Homo sapiens, UniProt Q05586+Q13224) (Q13224 whole entry, one chain of several): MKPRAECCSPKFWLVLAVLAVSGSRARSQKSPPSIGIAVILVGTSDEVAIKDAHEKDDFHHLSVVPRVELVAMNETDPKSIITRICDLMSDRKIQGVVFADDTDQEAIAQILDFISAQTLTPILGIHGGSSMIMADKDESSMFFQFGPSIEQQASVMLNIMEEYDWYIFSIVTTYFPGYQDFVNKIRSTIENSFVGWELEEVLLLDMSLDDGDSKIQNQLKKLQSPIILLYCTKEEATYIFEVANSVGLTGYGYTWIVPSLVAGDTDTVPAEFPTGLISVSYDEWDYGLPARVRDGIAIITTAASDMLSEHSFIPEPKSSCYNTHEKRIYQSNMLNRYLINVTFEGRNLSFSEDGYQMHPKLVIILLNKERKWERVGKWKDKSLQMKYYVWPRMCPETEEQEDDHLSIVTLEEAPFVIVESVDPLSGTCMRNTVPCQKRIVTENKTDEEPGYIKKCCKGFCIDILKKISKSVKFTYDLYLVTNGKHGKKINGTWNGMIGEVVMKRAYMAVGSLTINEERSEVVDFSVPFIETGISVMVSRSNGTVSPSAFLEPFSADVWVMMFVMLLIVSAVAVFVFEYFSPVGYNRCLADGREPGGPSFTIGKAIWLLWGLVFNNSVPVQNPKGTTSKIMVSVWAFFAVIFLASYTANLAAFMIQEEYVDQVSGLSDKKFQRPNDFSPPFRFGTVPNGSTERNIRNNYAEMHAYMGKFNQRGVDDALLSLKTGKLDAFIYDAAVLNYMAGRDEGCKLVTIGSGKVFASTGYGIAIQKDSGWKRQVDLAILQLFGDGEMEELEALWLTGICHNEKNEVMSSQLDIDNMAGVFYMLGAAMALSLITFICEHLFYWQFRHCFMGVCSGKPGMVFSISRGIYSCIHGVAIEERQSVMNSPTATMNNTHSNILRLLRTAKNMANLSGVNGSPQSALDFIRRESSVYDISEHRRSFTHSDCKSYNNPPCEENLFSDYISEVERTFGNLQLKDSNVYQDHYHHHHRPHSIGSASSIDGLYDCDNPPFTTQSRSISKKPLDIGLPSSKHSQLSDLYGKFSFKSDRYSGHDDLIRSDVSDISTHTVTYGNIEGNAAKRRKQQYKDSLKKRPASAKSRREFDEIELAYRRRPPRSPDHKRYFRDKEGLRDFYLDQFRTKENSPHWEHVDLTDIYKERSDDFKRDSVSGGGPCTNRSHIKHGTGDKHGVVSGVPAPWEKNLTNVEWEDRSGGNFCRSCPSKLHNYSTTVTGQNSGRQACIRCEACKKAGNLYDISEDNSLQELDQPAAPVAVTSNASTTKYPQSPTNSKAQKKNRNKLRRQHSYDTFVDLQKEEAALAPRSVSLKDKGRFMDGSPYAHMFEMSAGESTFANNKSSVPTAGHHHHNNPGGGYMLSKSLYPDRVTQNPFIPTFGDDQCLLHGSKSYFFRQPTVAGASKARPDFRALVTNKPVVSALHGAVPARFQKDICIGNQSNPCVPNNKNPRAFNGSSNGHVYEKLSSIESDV

Cc1ccc(CN2CC[C@@H](N3CC[C@@H](c4ccc(O)cc4)[C@H](F)C3)C2=O)cc1
TDI (Cytochrome P450 1A2 [1]): Not Active
TDI (Cytochrome P450 3A4 [2]): Not Active
IC50 [3]: 0.024 µM
Occ (Mus musculus [4]): 73%
concentration [5]: 270 to 1100 nM
fraction unbound [6]: 0.06
fraction unbound [7]: 0.09
fraction unbound [8]: 0.12
pKa [9]: 4.4
Occ (Mus musculus [10]): 95%
inhibition [11]: -2.4%
inhibition [12]: 8.6%
inhibition [13]: 7%
Activity (Salmonella typhimurium): Non-Toxic
fraction unbound [14]: 0.11
half-life [15]: 25 min
half-life [16]: 2.7 min
half-life [17]: 3.5 min
half-life [18]: 12 min
half-life [19]: 6 min
fraction unbound [20]: 0.07
IC50 (Cytochrome P450 3A4 [21]): > 18 µM
IC50 (Cytochrome P450 1A2 [22]): > 18 µM
IC50 (Cytochrome P450 2B6 [23]): > 18 µM
IC50 (Cytochrome P450 2C8 [24]): > 18 µM
IC50 (Cytochrome P450 2C9 [25]): > 18 µM
IC50 (Cytochrome P450 2C19 [26]): > 18 µM
IC50 (Cytochrome P450 2D6 [27]): > 18 µM
logD [28]: 2.9
solubility [29]: 2 µg/mL (≈ 5.23 µM)
Kp [30]: 2.8
Ki [31]: 0.0042 µM
Ki [32]: 0.0063 µM
half-life [33]: 216 min
clearance [34]: 75 mL/min/kg
Vd [35]: 8.2 L/kg
AUC(0-t) at 5 min [36]: 0.53 µM·h
half-life [37]: 54 min
clearance [38]: 54 mL/min/kg
Vd [39]: 2.3 L/kg
AUC(0-t) at 5 min [40]: 1.3 µM·h
half-life [41]: 90 min
clearance [42]: 15 mL/min/kg
Vd [43]: 1.7 L/kg
AUC(0-t) at 5 min [44]: 2.7 µM·h
half-life [45]: 126 min
clearance [46]: 17 mL/min/kg
Vd [47]: 2.1 L/kg
AUC(0-t) at 5 min [48]: 2.5 µM·h
bioavailability [49]: 2.5%
Activity (Cavia porcellus): Non-Toxic
Cp(f) [50]: <= 19 uM
TDI (Cytochrome P450 2B6 [51]): Not Active
TDI (Cytochrome P450 2C8 [52]): Not Active
TDI (Cytochrome P450 2C9 [53]): Not Active
TDI (Cytochrome P450 2C19 [54]): Not Active
TDI (Cytochrome P450 2D6 [55]): Not Active
inhibition [56]: inactive
Drug metabolism [57]: Metabolite_Detected
Drug metabolism [58]: Metabolite_Detected
Drug metabolism [59]: Metabolite_Detected
Drug metabolism [60]: Metabolite_Detected
Drug metabolism [61]: Metabolite_Detected
AUC (Rhesus monkey): 88 µM·h
